Assays:
FAAH [1] = target: T1, FAAH (Rattus norvegicus, UniProt P97612); assay: In vitro FAAH activity in rat brain membranes, 3H-AEA substrate, % of control; assay type: biochemical, Wistar rats; conditions: low value = strong inhibitor; for FAAH 100 nM: 100 nM compound; for In Vitro FAAH activity, 100 nM: 100 nM test compound; for In Vitro 100 nM (FAAH activity, % of control): compound at 100 nM
T1 construct: Frozen brains (without cerebellum) from Wistar rats were used; from tissue; host or cells: Wistar rat brain (without cerebellum), washed membrane pellets
T1 sequence (P97612 1-579): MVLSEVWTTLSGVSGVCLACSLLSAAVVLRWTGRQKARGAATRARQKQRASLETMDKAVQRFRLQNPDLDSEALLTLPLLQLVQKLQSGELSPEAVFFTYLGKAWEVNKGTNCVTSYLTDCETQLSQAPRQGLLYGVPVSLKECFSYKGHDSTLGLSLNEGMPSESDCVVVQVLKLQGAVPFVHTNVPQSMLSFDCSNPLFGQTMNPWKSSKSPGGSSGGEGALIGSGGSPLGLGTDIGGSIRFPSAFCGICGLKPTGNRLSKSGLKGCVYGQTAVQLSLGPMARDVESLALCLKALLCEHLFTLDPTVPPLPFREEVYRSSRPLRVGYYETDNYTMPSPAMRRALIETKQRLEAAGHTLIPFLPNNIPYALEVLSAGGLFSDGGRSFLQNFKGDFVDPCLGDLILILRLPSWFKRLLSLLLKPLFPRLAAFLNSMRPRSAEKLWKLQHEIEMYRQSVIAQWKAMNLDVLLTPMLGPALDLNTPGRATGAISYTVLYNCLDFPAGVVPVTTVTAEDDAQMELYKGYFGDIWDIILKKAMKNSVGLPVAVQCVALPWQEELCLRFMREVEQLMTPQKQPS
In short: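 Wistar rat brain membranes (5 μg protein) preincubated 15 min at 37 °C with compound at 10 μM or 0.1 μM (0.1% DMSO), then 2 μM AEA including 3H-AEA with 0.1% BSA, Tris pH 7.6, 10 min. 3H-ethanolamine counted after charcoal stop; % of no-compound control after blank subtraction.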

carboxylesterase (CE) [2] = assay: Carboxylesterase (CE) activity in mouse liver microsomes (LVms), p-nitrophenyl acetate; assay type: biochemical; conditions: 10 uM compound, read 10 min after substrate, remaining CE activity
Method: (§1) FAAH inhibition was determined as described above. Inhibition of monoacylglycerol lipase (MAGL) and carboxylesterase (CE) was performed according to the protocols described below. The controls for both in vitro and in vivo were the reaction mix minus the test compounds. Therefore, a low value in Table 2 below for the test compounds indicates a strong inhibitor.
(§2) CE activity measurement is based on the formation of p-nitrophenol from p-nitrophenyl acetate. Briefly, in 96-well plates 8 μg/ml of rat or mouse liver microsomes (LVms) were incubated with 10 μM FAAH inhibitors for 15 min and then the substrate, p-nitrophenyl acetate, was added to a final concentration of 1 mM. The plate was read at 405 nm 10 min after substrate addition for the appearance of p-nitrophenol using a spectrophotometer. The carboxylesterase activity in microsome extracts without inhibitor added were set at 100% as control and the remaining CE activities after incubation with inhibitors were calculated relative to the control.

carboxylesterase (CE) [3] = assay: Carboxylesterase (CE) activity in rat liver microsomes (LVms), p-nitrophenyl acetate; assay type: biochemical; conditions: 10 uM compound, read 10 min after substrate, remaining CE activity
Method: as §1, §2

FAAH [4] = target: T2, FAAH (Mus musculus, UniProt O08914); assay: In vivo FAAH inhibition after oral dosing, remaining activity in brain homogenate (BRh, central nervous tissue); design: species or system NMRI mice; conditions: brain homogenate, 3 mg/kg, 8 h after dosing; low value = strong inhibitor
T2 construct: A fragment of liver, left lung lobe and brain without cerebellum were removed; from tissue; host or cells: male NMRI mice; brain (without cerebellum) and liver homogenates
T2 sequence (O08914 1-579): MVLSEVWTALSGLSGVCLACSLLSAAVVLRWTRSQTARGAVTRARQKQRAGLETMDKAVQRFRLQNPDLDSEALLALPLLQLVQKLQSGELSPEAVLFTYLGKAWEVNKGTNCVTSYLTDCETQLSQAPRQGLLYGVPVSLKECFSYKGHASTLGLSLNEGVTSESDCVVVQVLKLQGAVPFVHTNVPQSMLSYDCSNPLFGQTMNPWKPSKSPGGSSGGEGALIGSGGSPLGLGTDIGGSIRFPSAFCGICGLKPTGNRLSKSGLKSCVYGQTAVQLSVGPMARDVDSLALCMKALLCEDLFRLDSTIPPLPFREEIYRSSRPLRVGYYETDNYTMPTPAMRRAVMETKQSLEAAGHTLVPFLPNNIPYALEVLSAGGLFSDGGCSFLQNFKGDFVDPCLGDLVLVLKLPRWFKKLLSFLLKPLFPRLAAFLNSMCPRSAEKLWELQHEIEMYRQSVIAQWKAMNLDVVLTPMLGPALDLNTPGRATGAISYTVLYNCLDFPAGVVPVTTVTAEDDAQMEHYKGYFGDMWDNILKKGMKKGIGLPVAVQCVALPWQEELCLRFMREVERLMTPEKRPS
In short: (§3)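 Male NMRI mice, fasted overnight, got 30 or 3 mg/kg compound orally (0.5% CMC suspension or water) and were compared with vehicle controls. Brain (no cerebellum) and liver homogenates were incubated with 2 μM AEA plus 5 nM 3H-AEA at 37 °C, 10 min for brain and 7 min for liver. Remaining FAAH activity is % of vehicle after blank subtraction.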

FAAH [5] = target: T2, FAAH; assay: In vivo FAAH inhibition after oral dosing, remaining activity in liver homogenate (LVh, peripheral tissue); design: species or system NMRI mice; conditions: liver homogenate, 3 mg/kg, 8 h after dosing; low value = strong inhibitor
In short: as §3

[6] = rat brain membranes, 100 = no measurable inhibition

| FAAH 10 uM (FAAH [1]; 10 uM compound, rat brain membranes, 100 = no measurable inhibition) | In Vitro FAAH activity, 10 uM (FAAH [1]; 10 uM test compound) | CE Mou LVms 10 uM 10 min (carboxylesterase (CE) [2]) | CE Rat LVms 10 uM 10 min (carboxylesterase (CE) [3]) | FAAH 100 nM (FAAH [1]; [6]) | In Vitro FAAH activity, 100 nM (FAAH [1]) | In Vitro 100 nM (FAAH activity, % of control) (FAAH [1]; rat brain membranes) | In Vivo BRh 3 mg·kg 8 h (remaining FAAH activity, % of control) (FAAH [4]) | In Vivo LVh 3 mg·kg 8 h (remaining FAAH activity, % of control) (FAAH [5]) | Compound |
| --- | --- | --- | --- | --- | --- | --- | --- | --- | --- |
| 24.7 % of control | 24.7 % of control | 95.4 % of control | 87.5 % of control |  |  |  |  |  | COc1ccc(N(C)C(=O)n2cnc(-c3ccc4ccccc4c3)c2)cc1 [Compound 16, N-(4-methoxyphenyl)-N-methyl-4-(naphthalen-2-yl)-1H-imidazole-1-carboxamide] |
|  |  | 31 % of control | 33 % of control | 0.1 % of control | 0.1 % of control |  |  |  | O=C(NCCCCc1ccccc1)n1nnc2ccccc21 [Compound 85, N-(4-phenylbutyl)-1H-benzo[d][1,2,3]triazole-1-carboxamide] |
|  |  | 50.7 % of control | 41.1 % of control | 0 % of control | 0 % of control |  |  |  | CN(C(=O)n1nnc2cc(Br)ccc21)C1CCCCC1 [Compound 97, 5-bromo-N-cyclohexyl-N-methyl-1H-benzo[d][1,2,3]triazole-1-carboxamide] |
|  |  |  |  |  |  | 75.4 % of control | 3.1 % of control | 1 % of control | CN(C(=O)n1cnc(-c2cccnc2)c1)C1CCCCC1 [Compound 335, N-cyclohexyl-N-methyl-4-(pyridin-3-yl)-1H-imidazole-1-carboxamide] |
|  |  |  |  |  |  | 44.7 % of control | 95.5 % of control | 19.7 % of control | CN(C(=O)n1cnc(-c2ccc(F)c(O)c2)c1)C1CCCCC1 [Compound 343, N-cyclohexyl-4-(4-fluoro-3-hydroxyphenyl)-N-methyl-1H-imidazole-1-carboxamide] |
|  |  |  |  |  |  | 1.7 % of control | 121.1 % of control | 2.1 % of control | CN(C(=O)n1cnc(-c2ccc(F)c(O)c2)c1)C1CCCC1 [Compound 344, N-cyclopentyl-4-(4-fluoro-3-hydroxyphenyl)-N-methyl-1H-imidazole-1-carboxamide] |
|  |  |  |  |  |  | 109.6 % of control | 76.6 % of control | 24.5 % of control | CC1(C)COCN1C(=O)n1cnc(-c2cccc(O)c2)c1 [Compound 347, (4,4-dimethyloxazolidin-3-yl)(4-(3-hydroxyphenyl)-1H-imidazol-1-yl)methanone] |
|  |  |  |  |  |  | 95.6 % of control | 7.1 % of control | 11.7 % of control | COc1cc(-c2cn(C(=O)N3COCC3(C)C)cn2)ccc1F [Compound 351, (4,4-dimethyloxazolidin-3-yl)(4-(4-fluoro-3-methoxyphenyl)-1H-imidazol-1-yl)methanone] |
|  |  |  |  |  |  | 93.9 % of control | 111.9 % of control | 10.4 % of control | CN(C(=O)n1cnc(-c2ccc(O)c(N)c2)c1)C1CCCCC1.Cl [Compound no. 357, 4-(3-amino-4-hydroxyphenyl)-N-cyclohexyl-N-methyl-1H-imidazole-1-carboxamide hydrochloride] |
|  |  |  |  |  |  | 1.4 % of control | 2.5 % of control | 1.7 % of control | CC1(C)COCN1C(=O)n1nnc2cc(Cl)ccc21 [Compound no. 359, (5-chloro-1-benzo[d][1,2,3]triazol-1-yl)(4,4-dimethyloxazolidin-3-yl)methanone] |
|  |  |  |  |  |  | 1.6 % of control | 3.1 % of control | 3.7 % of control | CC1(C)COCN1C(=O)n1nnc2c(F)cc(F)cc21 [Compound no. 360, (4,6-difluoro-1H-benzo[d][1,2,3]triazol-1-yl)(4,4-dimethyloxazolidin-3-yl)methanone] |
|  |  |  |  |  |  | 1.3 % of control | 6.3 % of control | 1.4 % of control | CC1(C)COCN1C(=O)n1nnc2ccc(-c3ccccc3)cc21 [Compound no. 361, (4,4-dimethyloxazolidin-3-yl)(6-phenyl-1H-benzo[d][1,2,3]triazol-1-yl)methanone] |

| Compound | FAAH 10 uM (FAAH [1]; 10 uM compound, rat brain membranes, 100 = no measurable inhibition) | In Vitro FAAH activity, 10 uM (FAAH [1]; 10 uM test compound) | CE Mou LVms 10 uM 10 min (carboxylesterase (CE) [2]) | CE Rat LVms 10 uM 10 min (carboxylesterase (CE) [3]) | FAAH 100 nM (FAAH [1]; [6]) | In Vitro FAAH activity, 100 nM (FAAH [1]) | In Vitro 100 nM (FAAH activity, % of control) (FAAH [1]; rat brain membranes) | In Vivo BRh 3 mg·kg 8 h (remaining FAAH activity, % of control) (FAAH [4]) | In Vivo LVh 3 mg·kg 8 h (remaining FAAH activity, % of control) (FAAH [5]) |
| --- | --- | --- | --- | --- | --- | --- | --- | --- | --- |
| CN(C(=O)n1cnc(-c2ccc[n+]([O-])c2)c1)C1CCCCC1 [Compound no. 362, 3-(1-(cyclohexyl(methyl)carbamoyl)-1H-imidazol-4-yl)pyridine 1-oxide] |  |  |  |  |  |  | 78.2 % of control | 1.6 % of control | 1.7 % of control |

Reference: US9353082B2, “Pharmaceutical compounds” (BIAL—PORTELA & CA, S.A., priority 2008, dated 2016)
